The test system of test [1] is multi-resistant Staphylococcus aureus 18-206. Nature of the test: paper diffusion method drug sensitivity test. The class given is cell-based. Conditions: for Zone of inhibition: Multi-resistant Staphylococcus aureus 18-206, 30 μg/tablet paper disc (6.35 mm), LB plate, 37° C., 24 h; for inhibitory effect on drug-resistant bacteria (in words): multi-resistant Staphylococcus aureus 18-206, summary of Table 1. Here is the method: (§1) The antimicrobial efficacy was determined by a paper diffusion method drug sensitivity test.
(§2) Experimental strains: Staphylococcus aureus (SAU), multi-resistant Staphylococcus aureus 18-206. The experimental strain was identified by Huashan Hospital Affiliated to Fudan University (Institute of Antibiotic of Fudan University).
(§3) Drug sensitive paper: The drug sensitive paper is a special drug sensitive paper with a diameter of 6.35 mm and a water absorption of 0.02 mL. The control drug was cefazolin (30 μg/tablet); the test drugs were cassic acid (30 μg/tablet), cinnamyl alcohol (30 μg/tablet) and cinnamyl alcohol cassic acid ester (30 μg/tablet).
(§4) Reagents: LB agar medium, LA broth medium, 0.5% DMSO solution.
(§5) The experimental strains were inoculated in non-selective medium and placed in air at 37° C. for 24 h. Pick a single colony that grows well and inoculate it into broth medium, incubate at 35° C.±2° C. for 6 hours, and use LA broth medium to calibrate the concentration of the bacterial solution to 0.5 Mie turbidimetric tube (1.5×10^8 CFU/mL). A bacterial suspension is obtained.
(§6) Weigh the LB dry powder, sterilize at 103.4 Kpa, 121.3° C. high-pressure steam for 15 min, and then put it in a 40° C.-50° C. water bath. Place a sterile empty plate (inner diameter 9 cm) on the surface of the ultra-clean table water table, shake and shake LB, and then pour the plate. The thickness of each plate is 3 mm to 4 mm. After the plate is cooled at room temperature, store it in the refrigerator at 2° C.-8° C. Use a sterile cotton swab to dip the bacterial solution, and evenly coat the surface of the LB plate 3 times. After inoculation of the bacterial suspension, the LB plate was dried at room temperature for 3 min to 5 min. Use sterile forceps to closely attach the antibacterial drug paper to the dish. Put the dish upside down and place it in a 37° C. incubator for 24 h. Observe the result and measure the diameter. Taking 0.5% DMSO solution as a negative control, the antibacterial activity is expressed by the diameter of the inhibition zone. The inhibition zone ≥17 mm, sensitive; the inhibition zone is 15 mm-16 mm, intermediary; the inhibition zone ≤14 mm, drug resistance.

Test [2] deals with Staphylococcus aureus (SAU). The experiment in a line: paper diffusion method drug sensitivity test. Conditions: 30 μg/tablet paper disc (6.35 mm), LB plate, 37° C., 24 h. The class given is cell-based. Here is the method:
as §1, §2, §3, §4, §5, §6

With `Cc1nnc(SCC2=C(C(=O)O)N3C(=O)[C@@H](NC(=O)Cn4cnnn4)[C@H]3SC2)s1` [Cefazolin], the Zone of inhibition in test [1] is reported as 22 mm; in test [2], 34 mm.
Take `O=C(OC/C=C/c1ccccc1)c1cc(O)c2c(c1)C(=O)c1cccc(O)c1C2=O` [Cinnamyl alcohol cassic acid ester, Cinnamyl 4,5-dihydroxy-9,10-dioxo-9,10-dihydroanthracene-2-carboxylate]: in test [1], the Zone of inhibition was determined as 15 mm and the “inhibitory effect on drug-resistant bacteria (in words)” value is given as “strong suppression effect”. In test [2], the Zone of inhibition came to 13 mm.
Turning to `O=C(O)c1cc(O)c2c(c1)C(=O)c1cccc(O)c1C2=O` [Cassic acid], the Zone of inhibition in test [1] and in test [2] was 7 mm throughout.
As for `OCC=Cc1ccccc1` [Cinnamyl alcohol], the Zone of inhibition is 0 mm in test [1] and 17 mm in test [2]. For the same compound, in test [1], the “inhibitory effect on drug-resistant bacteria (in words)” value is recorded as “no inhibitory effect”.

The record behind these values is patent US10947182B1, “Cinnamyl alcohol cassic acid ester with antibacterial activity and a method of preparing the same” (SHAANXI UNIVERSITY OF SCIENCE AND TECHNOLOGY, priority 2020, dated 2021).
